≈ marks a conversion by molar mass, not a printed value. Like-named read-outs stand apart in the source and are kept apart here.
Columns and labels:
[1] = test system: Enterococcus faecalis EF159, tetracycline-resistant, tet(M); experiment: MIC assay, EF159; assay type: cell-based; conditions: Table 8, read-out: MIC E. faecalis tetM
[2] = test system: E. coli DH10B(pBAD-tetK), expressing tet(K); experiment: MIC against recombinant E. coli expressing tet(K); assay type: cell-based; conditions: for MIC: Escherichia coli
Text: (§1) Constructs were transformed into E. coli DH10B for expression. Recombinant strains were pre-induced under optimized conditions with L-arabinose prior to use as inocula in CLSI standardized MIC assays.

[3] = test system: Staphylococcus aureus SA161, HA-MRSA, tetracycline-resistant, tet(M); experiment: MIC assay, SA161; assay type: cell-based; conditions: Table 8, read-out: MIC S. aureus MRSA, tetM
[4] = test system: Escherichia coli EC155, tetracycline-resistant, tet(A); experiment: MIC assay, EC155; assay type: cell-based; conditions: Table 8, read-out: MIC E. coli tetA
[5] = test system: Streptococcus pneumoniae SP106, ATCC 49619; experiment: MIC assay, SP106; assay type: cell-based; conditions: ATCC49619, Table 8, read-out: MIC S. pneumoniae ATCC 49619
[6] = test system: S. pneumoniae clinical isolates; experiment: MIC50, MIC90 and MIC range, panel of clinical isolates (Example 20); assay type: cell-based; conditions: 19 isolates, in µg/mL
Description: (§2) The assays were run as follows.
(§3) Both values, as well as the MIC range (the lowest and highest MIC value observed for a collection of organisms), were determined for the isolates listed in Table 3.

[7] = test system: S. aureus clinical isolates; experiment: as above; assay type: cell-based; conditions: MRSA, 30 isolates; in µg/mL
Description: as §2, §3

[8] = test system: E. faecalis clinical isolates; experiment: as above; assay type: cell-based; conditions: 24 isolates, in µg/mL
Description: as §2, §3

[9] = test system: Escherichia coli EC107, ATCC 25922; experiment: MIC assay, EC107; assay type: cell-based; conditions: ATCC25922, Table 8, read-out: MIC E. coli ATCC 25922
[10] = test system: E. coli S30 extract system, coupled in vitro transcription/translation, firefly luciferase readout; experiment: In vitro transcription/translation (TnT) assay; assay type: biochemical
[11] = test system: Staphylococcus aureus SA158, tetracycline-resistant tet(K); experiment: MIC assay, SA158; assay type: cell-based; conditions: Table 8, read-out: MIC S. aureus tetK
[12] = test system: E. coli DH10B(pBAD-tetM), expressing tet(M); experiment: MIC against recombinant E. coli expressing tet(M); assay type: cell-based; conditions: for MIC: Escherichia coli
Text: as §1

[13] = test system: tet(M) strains of S. aureus; experiment: MIC, CLSI methodology, recent clinical isolates (Example 21); assay type: cell-based; conditions: Staphylococcus aureus, read-out: MIC against tet(M) strains of S. aureus
Description: as §2
(§4) The antibacterial activities of Compounds MIC values were determined according to CLSI methodology. Recent clinical isolates were obtained from Eurofins-Medinet. Antibiotics were obtained from standard commercial sources.

[14] = test system: tet(M) strains of S. pneumoniae; experiment: as above; assay type: cell-based; conditions: Streptococcus pneumoniae, read-out: MIC against tet(M) strains of S. pneumoniae
Description: as §2, §4

[15] = test system: tet(M) and tet(S) strains of E. faecalis; experiment: as above; assay type: cell-based; conditions: Enterococcus faecalis, read-out: MIC against tet(M) and tet(S) strains of E. faecalis
Description: as §2, §4

[16] = test system: tet(K) strains of S. aureus; experiment: as above; assay type: cell-based; conditions: Staphylococcus aureus, read-out: MIC against tet(K) strains of S. aureus
Description: as §2, §4

[17] = test system: Streptococcus pneumoniae SP160, tetracycline-resistant, tet(M); experiment: MIC assay, SP160; assay type: cell-based; conditions: Table 8, read-out: MIC S. pneumoniae tetM
[18] = test system: Enterococcus faecalis EF103, ATCC 29212; experiment: MIC assay, EF103; assay type: cell-based; conditions: Enterococcus faecalis, ATCC29212; Table 8; read-out: MIC E. faecalis ATCC 29212
[19] = test system: Staphylococcus aureus SA101, ATCC 29213, MSSA; experiment: MIC assay, SA101; assay type: cell-based; conditions: Table 8, read-out: MIC S. aureus ATCC 29213

Question: What does the source list for `CN(C)CC(C)(C)CNc1nc(F)c2c(c1O)C(=O)C1=C(O)[C@]3(O)C(=O)C(C(N)=O)=C(O)[C@@H](N(C)C)[C@@H]3C[C@@H]1C2` [Compound 133]?
Answer: MIC [1]: 2 µg/mL (≈ 3.56 µM); MIC ([2]; read-out: MIC, TetK Induced): 1 µg/mL; MIC ([2]; read-out: MIC, Uninduced): 2 µg/mL; MIC ratio, TetK induced to uninduced ([2]; ratio of TetK induced to uninduced MIC): 0.5; Effect of expression of (tet)K on activity ([2]; result in words): unaffected; MIC [3]: 2 µg/mL (≈ 3.56 µM); MIC [4]: 8 µg/mL (≈ 14.2 µM); MIC [5]: 0.5 µg/mL (≈ 0.89 µM); MIC Range [6]: <=0.016-0.25; MIC Range [7]: 0.5-8; MIC Range [8]: 0.25-4; MIC [9]: 1 µg/mL (≈ 1.78 µM); TnT IC50 [10]: 0.56 µg/mL; IC50, in vitro transcription/translation system ([10]; E. coli S30 extract, luciferase readout): 0.6 µg/mL (≈ 1.07 µM); MIC [11]: 0.5 µg/mL (≈ 0.89 µM); MIC ([12]; read-out: MIC, TetM induced): 2 µg/mL; MIC ([12]; read-out: MIC, Uninduced): 0.5 µg/mL; Ratio (TetM induced / Uninduced) ([12]; ratio of MICs): 4; Effect of expression of (tet)M on activity ([12]; result in words): minimally affected; MIC [13]: ≤ 8 µg/mL; MIC [14]: ≤ 0.25 µg/mL; MIC [15]: ≤ 4 µg/mL; MIC [16]: ≤ 1 µg/mL; MIC [17]: 1 µg/mL (≈ 1.78 µM); MIC [18]: 0.5 µg/mL (≈ 0.89 µM); MIC [19]: 1 µg/mL (≈ 1.78 µM)
